Laboratory results: article PMC9897788, “Design, synthesis and cytotoxic evaluation of novel bis-thiazole derivatives as preferential Pim1 kinase inhibitors with in vivo and in silico study” (Journal of Enzyme Inhibition and Medicinal Chemistry, 2023)

What was measured:
Assay in all cases: NCI 60 cell one-dose screening (SRB)
Type in all cases: cell-based
[1] = system: HCT-116; conditions: Homo sapiens; HCT-116, Colon Cancer; single dose 10 µM, 48 h; read-out: Percentage of cellular growth inhibition
Experimental: (§1) The 60 cancerous cell panel screening was performed following the Developmental Therapeutics Program (DTP) of the National Cancer Institute (NIH-NCI), USA. A single dose of 10 µM was used to perform the screening at 48 h incubation and the results were achieved as cancerous cell growth percentage relative to the no-drug control that was converted to an inhibition percentage by subtracting from 100.The cancerous cell lines were grown in RPMI 1640 medium containing 5% foetal bovine serum and 2 mM L-glutamine at 37 °C, 5% CO2, 95% air and 100% relative humidity for 24 h prior to addition of the tested compounds. After 24 h, two plates of each cell line were fixed in situ with TCA to represent a measurement of the cell population for each cell line at the time of drug addition (Tz). Compounds were dissolved in DMSO at 400-fold the desired final maximum test concentration and stored frozen prior to use. At the time of drug addition, an aliquot of frozen concentrate was thawed and diluted to twice the desired final maximum test concentration with complete medium containing 50 µg/mL gentamicin. Aliquots of 100 µL of the compounds dilution was added to the appropriate micro titre wells already containing 100 µL of medium, resulting in the required final drug concentrations of 10 µM. Following compounds addition, the plates were incubated for an additional 48 h at 37 °C, 5% CO2, 95% air, and 100% relative humidity. For adherent cells, the assay was terminated by the addition of cold TCA. Cells were fixed in situ by the gentle addition of 50 µL of cold 50% (w/v) TCA (final concentration, 10% TCA) and incubated for 60 min at 4 °C. The supernatant was discarded, and the plates were washed five times with tap water and air dried. Sulphorhodamine B (SRB) solution (100 µL) at 0.4% (w/v) in 1% acetic acid is added to each well, and plates are incubated for 10 min at room temperature. After staining, unbound dye was removed by washing five times with 1% acetic acid and the plates were air dried. Bound stain was subsequently solubilised with 10 mM trizma base, and the absorbance was read on an automated plate reader at a wavelength of 515 nm. For suspension cells, the methodology was the same except that the assay was terminated by fixing settled cells at the bottom of the wells by gently adding 50 µL of 80% TCA (final concentration, 16% TCA). Using the seven absorbance measurements [time zero, (Tz), control growth, I, and test growth in the presence of drug at the five concentration levels (Ti)], the percentage growth was calculated as: [(Ti−Tz)/(C−Tz)]×100 for concentrations for which Ti>/=Tz [(Ti−Tz)/Tz]×100 for concentrations for which Ti<Tz.

[2] = system: MALME-3M; conditions: Homo sapiens, Melanoma, single dose 10 µM, 48 h, read-out: Percentage of cellular growth inhibition
Experimental: as §1

[3] = system: MOLT-4; conditions: Homo sapiens; MOLT-4, Leukemia; single dose 10 µM, 48 h; read-out: Percentage of cellular growth inhibition
Experimental: as §1

[4] = system: MCF7; conditions: Homo sapiens; MCF7, Breast Cancer; single dose 10 µM, 48 h; read-out: Percentage of cellular growth inhibition
Experimental: as §1

[5] = system: HOP-62; conditions: Homo sapiens; HOP-62, Non-Small Cell Lung Cancer; single dose 10 µM, 48 h; read-out: Percentage of cellular growth inhibition
Experimental: as §1

[6] = system: UACC-257; conditions: Homo sapiens; UACC-257, Melanoma; single dose 10 µM, 48 h; read-out: Percentage of cellular growth inhibition
Experimental: as §1

[7] = system: RPMI-8226; conditions: Homo sapiens; RPMI-8226, Leukemia; single dose 10 µM, 48 h; read-out: Percentage of cellular growth inhibition
Experimental: as §1

[8] = system: SNB-19; conditions: Homo sapiens; SNB-19, CNS Cancer; single dose 10 µM, 48 h; read-out: Percentage of cellular growth inhibition
Experimental: as §1

[9] = system: CCRF-CEM; conditions: Homo sapiens, Leukemia, single dose 10 µM, 48 h, read-out: Percentage of cellular growth inhibition
Experimental: as §1

[10] = system: SF-539; conditions: Homo sapiens; SF-539, CNS Cancer; single dose 10 µM, 48 h; read-out: Percentage of cellular growth inhibition
Experimental: as §1

[11] = system: 786-0; conditions: Homo sapiens; 786-0, Renal Cancer; single dose 10 µM, 48 h; read-out: Percentage of cellular growth inhibition
Experimental: as §1

[12] = system: M14; conditions: Homo sapiens; M14, Melanoma; single dose 10 µM, 48 h; read-out: Percentage of cellular growth inhibition
Experimental: as §1

[13] = system: CAKI-1; conditions: Homo sapiens; CAKI-1, Renal Cancer; single dose 10 µM, 48 h; read-out: Percentage of cellular growth inhibition
Experimental: as §1

[14] = system: OVCAR-5; conditions: Homo sapiens; OVCAR-5, Ovarian Cancer; single dose 10 µM, 48 h; read-out: Percentage of cellular growth inhibition
Experimental: as §1

[15] = system: HS 578T; conditions: Homo sapiens, Breast Cancer, single dose 10 µM, 48 h, read-out: Percentage of cellular growth inhibition
Experimental: as §1

[16] = system: KM12; conditions: Homo sapiens; KM12, Colon Cancer; single dose 10 µM, 48 h; read-out: Percentage of cellular growth inhibition
Experimental: as §1

[17] = system: COLO 205; conditions: Homo sapiens; COLO 205, Colon Cancer; single dose 10 µM, 48 h; read-out: Percentage of cellular growth inhibition
Experimental: as §1

[18] = system: SNB-75; conditions: Homo sapiens; SNB-75, CNS Cancer; single dose 10 µM, 48 h; read-out: Percentage of cellular growth inhibition
Experimental: as §1

[19] = system: OVCAR-4; conditions: Homo sapiens; OVCAR-4, Ovarian Cancer; single dose 10 µM, 48 h; read-out: Percentage of cellular growth inhibition
Experimental: as §1

[20] = system: SK-MEL-5; conditions: Homo sapiens; SK-MEL-5, Melanoma; single dose 10 µM, 48 h; read-out: Percentage of cellular growth inhibition
Experimental: as §1

[21] = system: NCI-H322M; conditions: Homo sapiens, Non-Small Cell Lung Cancer, single dose 10 µM, 48 h, read-out: Percentage of cellular growth inhibition
Experimental: as §1

Row | SMILES | inhibition at 10 µM [1] [%] | inhibition at 10 µM [2] [%] | inhibition at 10 µM [3] [%] | inhibition at 10 µM [4] [%] | inhibition at 10 µM [5] [%] | inhibition at 10 µM [6] [%] | inhibition at 10 µM [7] [%] | inhibition at 10 µM [8] [%] | inhibition at 10 µM [9] [%] | inhibition at 10 µM [10] [%] | inhibition at 10 µM [11] [%] | inhibition at 10 µM [12] [%] | inhibition at 10 µM [13] [%] | inhibition at 10 µM [14] [%] | inhibition at 10 µM [15] [%] | inhibition at 10 µM [16] [%] | inhibition at 10 µM [17] [%] | inhibition at 10 µM [18] [%] | inhibition at 10 µM [19] [%] | inhibition at 10 µM [20] [%] | also measured
1 | NC(=S)Nc1cccc(NC(N)=S)c1 [compound 2, 1,1′-(1,3-phenylene)bis(thiourea)] | -7 | 15.7 | 10.3 | 8.3 | -19.5 | 1.9 | -9.5 | 11.7 | 3.6 | -0.5 | -7.8 | -25.1 | 20.3 | -3.6 | -5 | 12.4 | -36.7 | 2.4 | 5.4 | 8.6 | inhibition at 10 µM [21]: 11.7%
2 | Cc1csc(Nc2cccc(Nc3nc(C)cs3)c2)n1 [3a, N^1,N^3-bis(4-methylthiazol-2-yl)benzene-1,3-diamine] | 4.8 | -18.3 | 44 | 21.9 | 3.5 | -21.6 | 11.8 | 1 | 1.5 | 7.9 | -10.8 | -7.3 | 23.7 | 7.1 | 7.9 | 5.2 | -3.8 | 1.6 | 11.8 | 6.2 | inhibition at 10 µM [21]: 4.9%
3 | Clc1ccc(-c2cs/c(=N\c3ccccc3)n2-c2cccc(-n3c(-c4ccc(Cl)cc4)cs/c3=N\c3ccccc3)c2)cc1 [8c, N,N’-(3,3’-(1,3-phenylene)bis(4–(4-chlorophenyl)thiazole-3(3H)-yl-2(3H)-ylidene))dianiline] | 15.7 | 6.7 | 12.3 | 23.4 | -3.3 | -8.4 | 37 | 3.8 | 32.6 | -3 | -6.9 | -10.7 | 9 | -2.6 | 10.4 | 8.8 | 17.2 | 14.6 | 12 | 3.1 | inhibition at 10 µM [21]: -1.2%
4 | Fc1ccc(-c2cs/c(=N\c3ccccc3)n2-c2cccc(-n3c(-c4ccc(F)cc4)cs/c3=N\c3ccccc3)c2)cc1 [8b, N,N’-(3,3’-(1,3-phenylene)bis(4–(4-fluorophenyl)thiazole-3(3H)-yl-2(3H)-ylidene))dianiline] | 16.7 | 7.5 | 50.1 | 42.9 | -4.6 | -7 | 24.2 | 5.6 | 35.2 | -0.9 | 4.2 | 0.4 | 22.2 | 14 | 13.4 | 12.8 | -0.4 | 15.4 | 34.7 | 9.3 | inhibition at 10 µM [21]: 15.2%
5 | c1ccc(/N=c2\scc(-c3ccccc3)n2-c2cccc(-n3c(-c4ccccc4)cs/c3=N\c3ccccc3)c2)cc1 [8a, N,N’-(3,3’-(1,3-phenylene)bis(4-phenylthiazole-3(3H)-yl-2(3H)-ylidene))dianiline] | -4.1 | 3 | -5.5 | 18 | -12.6 | -11.8 | -0.5 | -5.9 | -0.9 | -7.1 | -11.1 | -14.3 | 25.4 | -2.9 | 4.2 | 1.1 | -21.3 | 11.7 | 5.3 | 4 | inhibition at 10 µM [21]: 1.8%
6 | CCOC(=O)c1sc(Nc2cccc(Nc3nc(C)c(C(=O)OCC)s3)c2)nc1C [3c, Diethyl 2,2’-(1,3-phenylenebis(azanediyl))bis(4-methylthiazole-5-carboxylate)] | 43.5 | 15.2 | 29.2 | 26.7 | 1.2 | 10.3 | 37.7 | 17.7 | 11 | 16.2 | 5.5 | 14 | 21.9 | 8 | 14.7 | 12.2 | 12.8 | 2.6 | 33.2 | 55.1 | inhibition at 10 µM [21]: 3.8%
